# Test results taken from ChEMBL document CHEMBL4270498, “Targeting Eph/ephrin system in cancer therapy” (Eur J Med Chem, 2017).
# What was measured:
# Ephrin type-A receptor 2 [1] = target: T1, Ephrin type-A receptor 2 (Mus musculus, UniProt Q03145); experiment: Binding affinity to histidine-tagged mouse EphA2 Fc fusion protein by SPR assay
# Ephrin type-A receptor 2 [2] = target: T1, Ephrin type-A receptor 2; experiment: Displacement of biotinylated ephrinA1-Fc from recombinant mouse EphA2 Fc chimera protein by ELISA
# Ephrin type-B receptor 4 = target: T2, Ephrin type-B receptor 4 (Homo sapiens, UniProt P54760); experiment: Binding affinity to Fc-tagged EphB4 (unknown origin) assessed as reduction in ephrin-B2 binding by SPR assay
# T2 sequence (P54760 whole entry): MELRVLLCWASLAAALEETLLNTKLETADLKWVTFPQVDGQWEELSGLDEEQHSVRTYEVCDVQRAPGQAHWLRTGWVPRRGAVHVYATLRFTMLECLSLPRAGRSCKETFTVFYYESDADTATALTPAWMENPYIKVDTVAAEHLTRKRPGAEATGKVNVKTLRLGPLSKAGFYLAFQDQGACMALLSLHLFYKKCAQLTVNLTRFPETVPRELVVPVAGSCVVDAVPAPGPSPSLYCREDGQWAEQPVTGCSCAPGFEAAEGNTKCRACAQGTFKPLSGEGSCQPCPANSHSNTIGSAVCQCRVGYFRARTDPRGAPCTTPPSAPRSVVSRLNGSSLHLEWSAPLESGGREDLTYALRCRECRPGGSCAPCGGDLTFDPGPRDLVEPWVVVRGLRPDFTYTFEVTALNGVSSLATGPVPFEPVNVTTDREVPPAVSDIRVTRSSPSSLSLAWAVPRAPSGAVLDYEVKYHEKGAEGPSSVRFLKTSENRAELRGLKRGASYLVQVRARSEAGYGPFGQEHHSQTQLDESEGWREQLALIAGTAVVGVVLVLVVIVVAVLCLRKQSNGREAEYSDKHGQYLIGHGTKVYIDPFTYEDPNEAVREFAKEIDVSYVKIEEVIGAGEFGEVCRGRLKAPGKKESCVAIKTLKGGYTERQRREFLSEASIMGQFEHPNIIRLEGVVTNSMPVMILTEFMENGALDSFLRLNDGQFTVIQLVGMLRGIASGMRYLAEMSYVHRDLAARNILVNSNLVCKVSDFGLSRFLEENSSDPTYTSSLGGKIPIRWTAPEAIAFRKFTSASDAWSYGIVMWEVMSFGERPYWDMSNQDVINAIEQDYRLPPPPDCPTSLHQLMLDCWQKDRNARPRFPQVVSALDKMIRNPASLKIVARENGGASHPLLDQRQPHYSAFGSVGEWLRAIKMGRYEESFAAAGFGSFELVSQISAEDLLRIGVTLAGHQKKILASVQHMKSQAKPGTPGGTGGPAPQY
# Ephrin type-A receptor 2 [3] = target: Ephrin type-A receptor 2 (Homo sapiens, UniProt P29317); experiment: Binding affinity to EphA2 (unknown origin)
# [4] = Half life in mouse at 30 mg/kg, iv; format: ADME, organism-based; details: in vivo
# T1 sequence (Q03145 whole entry, the tested form may be a part): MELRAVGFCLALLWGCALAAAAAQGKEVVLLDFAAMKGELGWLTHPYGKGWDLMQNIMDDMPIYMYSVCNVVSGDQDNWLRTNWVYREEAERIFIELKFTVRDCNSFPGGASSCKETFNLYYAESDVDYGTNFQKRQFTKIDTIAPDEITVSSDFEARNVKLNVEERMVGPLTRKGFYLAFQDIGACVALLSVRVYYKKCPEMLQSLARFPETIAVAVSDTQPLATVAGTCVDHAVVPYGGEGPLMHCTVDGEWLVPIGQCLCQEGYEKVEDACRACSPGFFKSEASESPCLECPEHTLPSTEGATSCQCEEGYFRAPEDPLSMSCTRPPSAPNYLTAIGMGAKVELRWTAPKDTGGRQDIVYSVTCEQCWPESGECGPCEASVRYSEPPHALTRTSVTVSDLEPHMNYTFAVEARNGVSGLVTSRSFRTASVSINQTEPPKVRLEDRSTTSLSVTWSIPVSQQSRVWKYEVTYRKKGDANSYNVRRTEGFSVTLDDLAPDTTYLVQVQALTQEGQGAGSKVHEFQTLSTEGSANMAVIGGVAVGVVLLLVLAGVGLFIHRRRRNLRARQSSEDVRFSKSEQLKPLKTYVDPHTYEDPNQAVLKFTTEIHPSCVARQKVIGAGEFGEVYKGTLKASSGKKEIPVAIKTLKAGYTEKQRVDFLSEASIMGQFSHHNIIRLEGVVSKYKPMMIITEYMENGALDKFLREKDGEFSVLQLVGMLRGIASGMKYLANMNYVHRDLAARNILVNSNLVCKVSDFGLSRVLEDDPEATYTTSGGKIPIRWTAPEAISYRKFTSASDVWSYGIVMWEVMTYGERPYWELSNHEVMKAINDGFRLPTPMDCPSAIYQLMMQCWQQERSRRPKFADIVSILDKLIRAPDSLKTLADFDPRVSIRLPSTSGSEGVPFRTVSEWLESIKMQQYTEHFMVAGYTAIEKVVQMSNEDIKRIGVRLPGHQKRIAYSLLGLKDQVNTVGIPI
# Ephrin type-A receptor 2 (Homo sapiens, UniProt P29317), sequence (P29317 whole entry): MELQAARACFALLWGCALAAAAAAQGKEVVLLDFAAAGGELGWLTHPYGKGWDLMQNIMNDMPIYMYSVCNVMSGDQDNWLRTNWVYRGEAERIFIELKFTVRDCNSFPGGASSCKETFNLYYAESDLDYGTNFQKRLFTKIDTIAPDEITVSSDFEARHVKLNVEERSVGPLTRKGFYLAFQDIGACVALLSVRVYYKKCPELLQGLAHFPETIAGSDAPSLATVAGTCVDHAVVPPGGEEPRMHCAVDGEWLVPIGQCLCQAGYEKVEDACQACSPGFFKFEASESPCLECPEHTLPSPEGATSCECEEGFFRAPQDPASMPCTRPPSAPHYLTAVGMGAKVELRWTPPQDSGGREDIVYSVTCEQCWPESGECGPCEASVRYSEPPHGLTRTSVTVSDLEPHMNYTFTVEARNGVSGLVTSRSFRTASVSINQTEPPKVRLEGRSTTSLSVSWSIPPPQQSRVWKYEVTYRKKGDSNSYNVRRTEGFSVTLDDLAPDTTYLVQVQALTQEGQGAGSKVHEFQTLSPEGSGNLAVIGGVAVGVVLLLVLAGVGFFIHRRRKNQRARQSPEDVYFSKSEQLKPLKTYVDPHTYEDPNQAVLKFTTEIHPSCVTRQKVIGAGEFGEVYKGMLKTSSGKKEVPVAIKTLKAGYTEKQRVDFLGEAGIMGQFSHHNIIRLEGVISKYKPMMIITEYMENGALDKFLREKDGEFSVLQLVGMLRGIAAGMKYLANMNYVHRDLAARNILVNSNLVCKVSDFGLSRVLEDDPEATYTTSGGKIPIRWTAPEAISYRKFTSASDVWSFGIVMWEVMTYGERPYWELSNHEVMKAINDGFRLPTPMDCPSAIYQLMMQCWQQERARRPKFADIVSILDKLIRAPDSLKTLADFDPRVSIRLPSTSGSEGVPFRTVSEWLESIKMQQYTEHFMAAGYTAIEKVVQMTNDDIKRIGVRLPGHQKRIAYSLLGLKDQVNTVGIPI
compound,measurement,setting,value
CC(C)C[C@H](NC(=O)[C@H](Cc1c[nH]c2ccccc12)NC(=O)[C@@H](N)CO)C(=O)N[C@@H](C)C(=O)N[C@@H](Cc1ccc(O)cc1)C(=O)N1CCC[C@H]1C(=O)NCC(=O)N[C@@H](C)C(=O)N[C@H](C(=O)N[C@@H](CO)C(=O)N[C@@H](Cc1ccc(O)cc1)C(=O)N[C@@H](CCCN=C(N)N)C(=O)O)C(C)C,Kd,Ephrin type-A receptor 2 [1],700 nM
C[C@H](CCC(=O)O)[C@H]1CC[C@H]2[C@@H]3CC[C@@H]4C[C@H](O)CC[C@]4(C)[C@H]3CC[C@]12C [LITHOCHOLIC ACID],IC50,Ephrin type-A receptor 2 [2],57000 nM
H-TNYLFSPNGPIARAW-OH,Kd,Ephrin type-B receptor 4,2 nM
C[C@H](CCC(=O)N[C@H](CC(=O)O)Cc1c[nH]c2ccccc12)[C@H]1CC[C@H]2[C@@H]3CC[C@@H]4CCCC[C@]4(C)[C@H]3CC[C@]12C,Ki,Ephrin type-A receptor 2 [3],> 15000 nM
CCCC[C@H](NC(=O)[C@@H]1CCCN1C(=O)[C@@H](NC(=O)[C@H](CO)NC(=O)[C@H](CC(=O)O)NC(=O)[C@@H]1CCCN1C(=O)[C@H](Cc1ccc(O)cc1)NC(=O)[C@H](C)NC(=O)[C@H](CO)NC(=O)COc1ccc(F)c(Cl)c1)C(C)C)C(=O)N[C@@H](CCO)C(=O)N[C@@H](CO)C(=O)N[C@@H](CCCCNC(=O)CCCc1cn(CCCCCOC(=O)COCC(=O)O[C@@H](C(=O)O[C@H]2C[C@@]3(O)[C@@H](OC(=O)c4ccccc4)[C@@H]4[C@]5(OC(C)=O)CO[C@@H]5C[C@H](O)[C@@]4(C)C(=O)[C@H](OC(C)=O)C(=C2C)C3(C)C)[C@@H](NC(=O)c2ccccc2)c2ccccc2)nn1)C(=O)O,half-life,[4],> 2 h
